Publication PMC6158189, “A pharmacological probe identifies cystathionine β-synthase as a new negative regulator for ferroptosis” (Cell Death & Disease, 2018)

Tests used:
[1] = system: HEK293T cells expressing CBS Q222A mutant; assay: cell viability of HEK293T stable line expressing CBS Q222A; type: cell-based; settings: 10 µM, 24 h
Method: (§1) Figure S15. The mode of actions for CH004 in cells. […] Indicated HEK293T stable cell lines were treated with CH004 at a concentration of 10 µM for 24 h, and the cell viability was then measured using the CellTiter96® Aqueous One Solution Cell Proliferation Assay (Promega). Means ± SDs (n=3). (B-C) CH004 or erastin triggers ferroptosis in mouse embryonic fibroblasts (MEF). WT MEF cells were treated with CH004 or erastin at indicated concentrations in the presence or the absence of 500 µM DFO for 24 h before measuring the lipid ROS with 2 μM BODIPY® 581/591 C11 (Materials and methods). […] Erastin at micromolar concentrations were incubated with HepG2 cells for 24 h before measuring the lipid ROS (see above and Materials and methods). […] Means ± SDs (n=3). […] CH004 or erastin at a concentration of 20 µM was incubated with HepG2 cells for 48 h or 72 h in the presence or the absence of 100 µM DFO. The cell viability was accordingly quantified using the CellTiter96® Aqueous One Solution Cell Proliferation Assay (Promega) and the results were shown as percentages of DMSO (control, 100%). Means ± SDs (n=3). All the experiments were independently repeated at least twice and one representative result is present. Table S1 The inhibitory effects of CH004 on purified hCBS, hCSE and hDDC.

[2] = system: HepG2 cells; assay: cell viability (CellTiter 96 Aqueous One); type: cell-based, human; settings: 24 h
Method: Fig. 4 CH004 arrests the cell cycle at the S phase. a CH004 reduces the cell viability of HEK293T and HepG2 cells. HEK293T or HepG2 cells were treated with indicated concentrations of CH004 for 24 h before the cell number was analyzed using the CellTiter96® Aqueous One Solution Cell Proliferation Assay (Promega, Materials and Methods). The means at each concentration of one representative experiment are shown as percentages of DMSO (control, 100%). Means ± SDs (n = 3). b Overexpression of hCBS or knock-down of hCBS counteracts the growth inhibition exerted by CH004 in HEK293T cells. Indicated HEK293T stable cell lines were treated with the CH004 or DMSO for 24 h. Then, the cell viability was quantified with the CellTiter 96® Aqueous One Solution Cell Proliferation Assay under the standard protocol (Promega). The means at each concentration are shown as percentages of their respective DMSO controls (100%). Means ± SDs (n = 3). The efficacy for CBS overexpression and knock-down in HEK293T cells was determined by Western blotting using an anti-CBS antibody (3E1, 1:2000; Abnova). c CH004 induces cell death in HEK293T and HepG2 cells. […] The means of percentages of dead cells (DMSO, 100%) from three independent samples are shown in d. Means ± SDs (n = 3). e, f Pharmacological inhibition or genetic knock-down of hCBS in HEK293T cells arrests the cell cycle at S phase. HEK293T cells were incubated with indicated compounds for 12 h, and the DNA content was quantified with propidium iodide to analyze the cell cycle distribution by flow cytometry (e). The cell cycle distributions for HEK293T-shNT and HEK293T-shCBS cells were accordingly analyzed and are shown in f. One representative diagram is shown for each condition. The mean percentages of various cell phases from three independent samples are shown in the respective right panels. Means ± SDs (n = 3). […]
Figure S15. […] Indicated HEK293T stable cell lines were treated with CH004 at a concentration of 10 µM for 24 h, and the cell viability was then measured using the CellTiter96® Aqueous One Solution Cell Proliferation Assay (Promega). […]

[3] = system: HepG2 cells; assay: lipid ROS (BODIPY 581/591 C11, flow cytometry); type: cell-based, human; settings: 24 h, HepG2
Method: To detect lipid peroxidation upon treatment with CH004, HepG2 cells or mouse embryonic fibroblasts (MEF) were seeded in 12-well plates with ~ 1.8 × 10^5 cells per well for 24 h. After treatment with the inhibitor for another 24 h, cells were stained with BODIPY® 581/591 C11 (Invitrogen) for 1 h at a final concentration of 2 μM at 37 °C[57]. The cells were then resuspended in an appropriate amount of PBS after being washed once with PBS. Lipid peroxidation, i.e., lipid ROS, was analyzed by detection of the fluorescence using an LSR Fortessa flow cytometer. The data were recorded at 530/30 nm (green fluorescent) and 670/30 nm (red fluorescent) wavelengths after excitation at 488 nm. A minimum of 20000 events was used for the analysis. All the experiments were independently repeated twice in triplicate.
as §1

SMILES: Cn1nc(Cc2ccccc2)nc2c(=O)n(C)c(=O)nc1-2 [CH004, 3-benzyl-1,6-dimethylpyrimido[5,4-e][1,2,4]triazine-5,7(1H,6H)-dione]
- cell death triggered by CH004 in cells expressing CH004-insensitive CBS Q222A [1]: partially rescues
- IC50 [2]: ~11 µM
- IC50 ([2]; Homo sapiens, HepG2, 24 h): 11.3 ± 1.3 µM
- increase of lipid ROS ([3]; 10 μM): ~ 250%
- lipid peroxidation (lipid ROS), dose dependence [3]: dose-dependently increased
